Source: patent US6313111A, “Substituted 6H-1,3,4-thiadiazine-2-amines, the use thereof as anaesthetising, cardiovascular and hypometabolic agents, and pharmaceutical composition containing them” (priority 1998, dated 2001)
“And” between values parts separate entries of the source, which are not always exact repeats. Equal values may be shown once. Where a name gives a salt, the structure may show the parent alone.

Columns and labels:
[1] = behaviour of mice after injection of compound 1; type: in vivo, mice of the BALB line; conditions: for behaviour of mice: 140 mg/kg
Experimental: In all cases tests were carried out on mice of the BALB line of 3-4 month age. Non-toxic doses of compounds under test varying from 60 to 400 mg/kg were used in all experiments. In the case of water-soluble compounds, aqueous solutions of the test compounds were injected intraperitoneally (i.p.), while water-insoluble compounds were introduced orally (p.o.).
The behaviour of mice to injection of compound 1 at 140 mg/kg dosage is as follows: […]

[2] = rate of oxygen consumption of mice in closed unit with optic-acoustic gas analyser MN 5130; type: in vivo, mice of the BALB line; conditions: relative to starting content
Experimental: In all cases tests were carried out on mice of the BALB line of 3-4 month age. […] In the case of water-soluble compounds, aqueous solutions of the test compounds were injected intraperitoneally (i.p.), while water-insoluble compounds were introduced orally (p.o.).
Rectal temperature changes (absolute magnitues in ° C.) were measured using a medicinal electrothermometer TREM-1 (Table 1). The rate of oxygen consumption was monitored by measuring concentration of oxygen in a closed testing unit with optic-acoustic gas analyser MN 5130. The data on oxygen consumption are given in percents relative to the starting content of oxygen taken as 100%. (Table 2).

Compound: c1ccc(C2=NN=C(N3CCOCC3)SC2)cc1 [Compound 1, 2-Morpholino-5-phenyl-6H-1,3,4-thiadiazine, hydrobromide]
- behaviour of mice ([1]; 15-180 minutes): akinesia, mio-relaxation, lack of reflexes
- behaviour of mice ([1]; 180-360 minutes): restoration of motor activity
- behaviour of mice ([1]; 5 minutes): decrease in motor activity, suppression of breathing
- tremor or convulsions ([1]; non-toxic dose levels): not accompanied by tremor or convulsions
- consumption of oxygen (O2) ([2]; 10.0 mg/kg i.p., 0 min): 100 ± 6.9%
- consumption of oxygen (O2) ([2]; 10.0 mg/kg i.p., 10 min): 94.0 ± 5.5%
- consumption of oxygen (O2) ([2]; 10.0 mg/kg i.p., 20 min): 87.3 ± 9.9%
- consumption of oxygen (O2) ([2]; 10.0 mg/kg i.p., 30 min): 78.2%
- consumption of oxygen (O2) ([2]; 10.0 mg/kg i.p., 60 min): 83.3 ± 18.1%
- consumption of oxygen (O2) ([2]; 10.0 mg/kg i.p., 90 min): 75.9 ± 19.3%
- consumption of oxygen (O2) ([2]; 10.0 mg/kg i.p., 120 min): 95.6 ± 10.8%
- consumption of oxygen (O2) ([2]; 10.0 mg/kg i.p., 180 min): 80.6 ± 9.9%
- consumption of oxygen (O2) ([2]; 10.0 mg/kg i.p., 240 min): 92.6 ± 3.9%
- consumption of oxygen (O2) ([2]; 10.0 mg/kg i.p., 300 min): 109.7 ± 8.8%
- consumption of oxygen (O2) ([2]; 35.0 mg/kg i.p., 0 min): 100 ± 7.4%
- consumption of oxygen (O2) ([2]; 35.0 mg/kg i.p., 10 min): 86.3 ± 13.1%
- consumption of oxygen (O2) ([2]; 35.0 mg/kg i.p., 20 min): 73.6 ± 2.6%
- consumption of oxygen (O2) ([2]; 35.0 mg/kg i.p., 30 min): 68.4%
- consumption of oxygen (O2) ([2]; 35.0 mg/kg i.p., 60 min): 70.4 ± 7.1%
- consumption of oxygen (O2) ([2]; 35.0 mg/kg i.p., 90 min): 72.1 ± 10.4%
- consumption of oxygen (O2) ([2]; 35.0 mg/kg i.p., 120 min): 68.4 ± 11.2%
- consumption of oxygen (O2) ([2]; 35.0 mg/kg i.p., 180 min): 78.4 ± 9.3%
- consumption of oxygen (O2) ([2]; 35.0 mg/kg i.p., 240 min): 97.4 ± 5.6%
- consumption of oxygen (O2) ([2]; 35.0 mg/kg i.p., 300 min): 85.1 ± 3.8%
- consumption of oxygen (O2) ([2]; 140.0 mg/kg i.p., 0 min): 100 ± 21.7%
- consumption of oxygen (O2) ([2]; 140.0 mg/kg i.p., 10 min): 26.3 ± 6.8%
- consumption of oxygen (O2) ([2]; 140.0 mg/kg i.p., 20 min): 46.8 ± 4.7%
- consumption of oxygen (O2) ([2]; 140.0 mg/kg i.p., 30 min): 32.2%
- consumption of oxygen (O2) ([2]; 140.0 mg/kg i.p., 60 min): 49.3 ± 9.8%
- consumption of oxygen (O2) ([2]; 140.0 mg/kg i.p., 90 min): 43.6 ± 18.6%
- consumption of oxygen (O2) ([2]; 140.0 mg/kg i.p., 120 min): 49.3 ± 15.4%
- consumption of oxygen (O2) ([2]; 140.0 mg/kg i.p., 180 min): 78.9 ± 10.6%
- consumption of oxygen (O2) ([2]; 140.0 mg/kg i.p., 240 min): 88.8 ± 9.8%
- consumption of oxygen (O2) ([2]; 140.0 mg/kg i.p., 300 min): 105.3 ± 20.5%
- consumption of oxygen (O2) ([2]; 190 mg/kg (1/2 LD16) i.p., 5 min): 43%
- consumption of oxygen (O2) ([2]; 190 mg/kg (1/2 LD16) i.p., 15 min): 71.7%
- consumption of oxygen (O2) ([2]; 190.0 mg/kg i.p., 0 min, hydrobromide): 100% and 100 ± 27.8%
- consumption of oxygen (O2) ([2]; 190.0 mg/kg i.p., 10 min): 26.3 ± 9.8%
- consumption of oxygen (O2) ([2]; 190.0 mg/kg i.p., 20 min): 71.7 ± 4.1%
- consumption of oxygen (O2) ([2]; 190.0 mg/kg i.p., 30 min): 49.2%
- consumption of oxygen (O2) ([2]; 190.0 mg/kg i.p., 60 min, hydrobromide): 29.5% and 29.5 ± 15.0%
- consumption of oxygen (O2) ([2]; 190.0 mg/kg i.p., 90 min, hydrobromide): 47.5% and 47.5 ± 6.8%
- consumption of oxygen (O2) ([2]; 190.0 mg/kg i.p., 120 min, hydrobromide): 36.9% and 36.9 ± 22.8%
- consumption of oxygen (O2) ([2]; 190.0 mg/kg i.p., 180 min, hydrobromide): 55.3% and 55.3 ± 9.1%
- consumption of oxygen (O2) ([2]; 190.0 mg/kg i.p., 240 min, hydrobromide): 99.6% and 99.6 ± 11.2%
- consumption of oxygen (O2) ([2]; 190.0 mg/kg i.p., 300 min, hydrobromide): 151.6% and 151.6 ± 20.7%
- consumption of oxygen (O2) ([2]; 279.0 mg/kg i.p., 0 min): 100 ± 5.2%
- consumption of oxygen (O2) ([2]; 279.0 mg/kg i.p., 10 min): 32.6 ± 2.2%
- consumption of oxygen (O2) ([2]; 279.0 mg/kg i.p., 20 min): 26.7 ± 2.2%
- consumption of oxygen (O2) ([2]; 279.0 mg/kg i.p., 30 min): 20.7%
- consumption of oxygen (O2) ([2]; 279.0 mg/kg i.p., 60 min): 9.3 ± 5.1%
- consumption of oxygen (O2) ([2]; 279.0 mg/kg i.p., 90 min): 10.9 ± 5.5%
- consumption of oxygen (O2) ([2]; 279.0 mg/kg i.p., 120 min): 9.3 ± 5.9%
- consumption of oxygen (O2) ([2]; 279.0 mg/kg i.p., 180 min): 9.3 ± 4.0%
- consumption of oxygen (O2) ([2]; 279.0 mg/kg i.p., 240 min): 13.0 ± 8.7%
- consumption of oxygen (O2) ([2]; 279.0 mg/kg i.p., 300 min): 10.9 ± 1.0%
- consumption of oxygen (O2) ([2]; 365.0 mg/kg i.p., 0 min): 100 ± 4.7%
- consumption of oxygen (O2) ([2]; 365.0 mg/kg i.p., 10 min): 15.2 ± 3.1%
- consumption of oxygen (O2) ([2]; 365.0 mg/kg i.p., 20 min): 15.8 ± 5.0%
- consumption of oxygen (O2) ([2]; 365.0 mg/kg i.p., 30 min): 13.6%
- consumption of oxygen (O2) ([2]; 365.0 mg/kg i.p., 60 min): 13.3 ± 3.7%
- consumption of oxygen (O2) ([2]; 365.0 mg/kg i.p., 90 min): 13.1 ± 2.0%
- consumption of oxygen (O2) ([2]; 365.0 mg/kg i.p., 120 min): 17.0 ± 3.4%
- consumption of oxygen (O2) ([2]; 365.0 mg/kg i.p., 180 min): 11.2 ± 3.4%
- consumption of oxygen (O2) ([2]; 365.0 mg/kg i.p., 240 min): 8.2 ± 2.0%
- consumption of oxygen (O2) ([2]; dose 36.5 mg/kg (1.06 mM/kg) i.p., 300 min): 18.4 ± 2.0%
